Source: paper PMC10920834, “Synthesis, anticancer activity, and molecular docking of half-sandwich iron(II) cyclopentadienyl complexes with maleimide and phosphine or phosphite ligands” (Scientific Reports, 2024)

How the values were obtained:
Type in all cases: cell-based, human
[1] = test system: HL-60 cells; assay: Cell viability resazurin assay, HL-60 cells; settings: for viability of HL-60 cells relative to control: ± SD
Experimental: (§1) The A549 (human non-small cell lung cancer) cell line was obtained from the American Type Culture Collection (ATCC) and cultured in Dulbecco's Modified Eagle Medium (DMEM) with 10% fetal bovine serum (FBS), 2 mM L-Glutamine, 25 mM HEPES and penicillin/streptomycin solution (100 U/ml and 100 µg/ml, respectively). The HL-60 (human promyelocytic leukemia) cell line was also obtained from the American Type Culture Collection (ATCC) and cultured in Iscove’s Modified Dulbecco's Medium (IMDM) with 15% fetal bovine serum (FBS), 2 mM L-Glutamine, 25 mM HEPES and penicillin/streptomycin solution (100 U/ml and 100 µg/ml, respectively). Both cell lines were cultured in flasks at 37 °C in 5% CO2 and sub-cultured every 2–3 days to maintain exponential growth.
(§2) Firstly, resazurin salt powder was dissolved in sterile 1 × PBS. Cells were then seeded on the 96-well plates in the count of 1 × 10^4 in the case of HL-60 cells and of 5 × 10^4 for PBM cells and of 5 × 10^3 for A549 cells per well. A549 cells were seeded 24 h prior to treatment with the complexes to allow cell adherence to 96-well plate. Iron(II) complexes were added to wells to obtain final concentrations of 0.5, 1, 2.5, 5, 10, 25, 50, 100 and 250 μM. Subsequently, plates were incubated at 37 °C in 5% CO2 for 2 h and 24 h. After that 10 μl of resazurin salt was added to each well and plates again were incubated in 37 °C in 5% CO2 for 2 h. Finally, fluorescence was measured with microplate reader Synergy HT (Bio-Tek Instruments, USA) using an excitation wavelength of 530/25 and an emission wavelength of 590/35 nm. The effects of iron(II) complexes were calculated as the percentage of control fluorescence. IC50 (half maximal inhibitory concentration) values were calculated using a website algorithm (https://www.aatbio.com/tools/ic50-calculator). All assays were performed in octuplicate.

[2] = test system: A549 cells; assay: Cell viability resazurin assay, A549 cells; settings: for viability of A549 cells relative to control: ± SD
Experimental: as §1, §2

[3] = test system: HL-60 cells; assay: Alkaline comet assay, HL-60 cells
Experimental: Selected iron(II) complexes were added to the suspension of the cells to give final concentrations of 1, 5, 10, 25 and 50 μM. HL-60 and A549 cells were incubated with the complexes for 2 h at 37 °C. The comet assay was performed under alkaline conditions according to the procedure of Tokarz et al.[45]. […] Next, the cells were lysed for 1 h at 4 °C in a buffer containing 2.5 M NaCl, 0.1 M EDTA, 10 mM Tris, 1% Triton X-100, pH 10. Following the lysis, the slides were placed in an electrophoresis unit. DNA was allowed to unwind for 20 min in the solution containing 300 mM NaOH and 1 mM EDTA, pH > 13. […] After separation, the slides were washed in water, drained, stained with 2 μg/ml DAPI and covered with cover slips. As a prevention from additional DNA damage, the procedure described above was conducted under limited light or in the dark. Each experiment included the positive control—cells incubated with H2O2 at 20 µM for 15 min on ice (data not shown).
The comets obtained after single cell gel electrophoresis were analysed in the following manner. […] Hundred images of singular comets were randomly selected from each sample and the mean value of DNA in comet tail was taken as an index of DNA damage (expressed in percent).

[4] = test system: PBM cells; assay: Cell viability resazurin assay, PBM cells; settings: for viability of PBM cells relative to control: ± SD
Text: Peripheral blood mononuclear (PBM) cells were isolated from a leukocyte-buffy coat collected from the blood of healthy, non-smoking donors at the Blood Bank in Lodz, Poland. The study protocol received approval from the Committee for Research on Human Subjects of the University of Lodz (17/KBBN-UŁ/III/2019). The initial step of isolation process involved mixing buffy coats with PBS in a 1:1 ratio. Subsequently, the mixture was centrifuged using a density gradient of Lymphosep (Cytogen, Zgierz, Poland) at 2200 RPM for 20 min, employing the lowest values for acceleration and deceleration. PBM cells were collected and washed three times by centrifugation with 1 × PBS. Following isolation, the cells were suspended in RPMI 1640 medium.
as §2

O=C1C=CC(=O)[N-]1.[C-]#[O+].[C-]#[O+].[Fe+2].c1cc[cH-]c1 [compound 1, CpFe(CO)2(η^1-N-maleimidato)]
viability of HL-60 cells relative to control ([1]; 2 h incubation, 0.5 µM): 101.68 ± 0.96% | viability of HL-60 cells relative to control ([1]; 2 h incubation, 1 µM): 101.06 ± 1.48% | viability of HL-60 cells relative to control ([1]; 2 h incubation, 2.5 µM): 100.83 ± 2.04% | viability of HL-60 cells relative to control ([1]; 2 h incubation, 5 µM): 97.79 ± 1.25% | viability of HL-60 cells relative to control ([1]; 2 h incubation, 10 µM): 89.74 ± 2.7% | viability of HL-60 cells relative to control ([1]; 2 h incubation, 25 µM): 83.96 ± 1.62% | viability of HL-60 cells relative to control ([1]; 2 h incubation, 50 µM): 73.55 ± 0.27% | viability of HL-60 cells relative to control ([1]; 2 h incubation, 100 µM): 24.73 ± 1.89% | viability of HL-60 cells relative to control ([1]; 2 h incubation, 250 µM): 15.71 ± 0.21% | IC50 ([1]; 24 h incubation): 7.69 µM | viability of HL-60 cells relative to control ([1]; 24 h incubation, 0.5 µM): 106.53 ± 5.45% | viability of HL-60 cells relative to control ([1]; 24 h incubation, 1 µM): 107.4 ± 3.25% | viability of HL-60 cells relative to control ([1]; 24 h incubation, 2.5 µM): 109.43 ± 1.41% | viability of HL-60 cells relative to control ([1]; 24 h incubation, 5 µM): 89.27 ± 2.42% | viability of HL-60 cells relative to control ([1]; 24 h incubation, 10 µM): 42.91 ± 0.62% | viability of HL-60 cells relative to control ([1]; 24 h incubation, 25 µM): 37.45 ± 1.48% | viability of HL-60 cells relative to control ([1]; 24 h incubation, 50 µM): 30.99 ± 0.27% | viability of HL-60 cells relative to control ([1]; 24 h incubation, 100 µM): 14.21 ± 0.37% | viability of HL-60 cells relative to control ([1]; 24 h incubation, 250 µM): 3.83 ± 0.21% | viability of A549 cells relative to control ([2]; 2 h incubation, 0.5 µM): 93.79 ± 10.65% | viability of A549 cells relative to control ([2]; 2 h incubation, 1 µM): 93.56 ± 10.37% | viability of A549 cells relative to control ([2]; 2 h incubation, 2.5 µM): 78.45 ± 9.98% | viability of A549 cells relative to control ([2]; 2 h incubation, 5 µM): 67.97±12.88% | viability of A549 cells relative to control ([2]; 2 h incubation, 10 µM): 63.34 ± 13% | viability of A549 cells relative to control ([2]; 2 h incubation, 25 µM): 51.29 ± 9.65% | viability of A549 cells relative to control ([2]; 2 h incubation, 50 µM): 41.64 ± 8.89% | viability of A549 cells relative to control ([2]; 2 h incubation, 100 µM): 36.49 ± 6.19% | viability of A549 cells relative to control ([2]; 2 h incubation, 250 µM): 36.35 ± 4.86% | IC50 ([2]; 24 h incubation): 54.2 µM | viability of A549 cells relative to control ([2]; 24 h incubation, 0.5 µM): 75.31 ± 7.67% | viability of A549 cells relative to control ([2]; 24 h incubation, 1 µM): 70.02 ± 8.73% | viability of A549 cells relative to control ([2]; 24 h incubation, 2.5 µM): 73.33 ± 7.65% | viability of A549 cells relative to control ([2]; 24 h incubation, 5 µM): 104.37 ± 10.70% | viability of A549 cells relative to control ([2]; 24 h incubation, 10 µM): 108.72 ± 15.90% | viability of A549 cells relative to control ([2]; 24 h incubation, 25 µM): 82.97 ± 8.04% | viability of A549 cells relative to control ([2]; 24 h incubation, 50 µM): 50.31 ± 12.68% | viability of A549 cells relative to control ([2]; 24 h incubation, 100 µM): 9.43 ± 1.69% | viability of A549 cells relative to control ([2]; 24 h incubation, 250 µM): 2.35 ± 0.49% | DNA damage in HL-60 cells (alkaline comet assay), in words ([3]; 2 h incubation, 1-50 μM tested): induced DNA damage | DNA in tail (alkaline comet assay) ([3]; HL-60 cells, 2 h, 50 μM): 25% | viability of PBM cells relative to control ([4]; 2 h incubation, 0.5 µM): 101.07 ± 0.78% | viability of PBM cells relative to control ([4]; 2 h incubation, 1 µM): 100.74 ± 0.73% | viability of PBM cells relative to control ([4]; 2 h incubation, 2.5 µM): 99.56 ± 1.96% | viability of PBM cells relative to control ([4]; 2 h incubation, 5 µM): 99.26 ± 2.82% | viability of PBM cells relative to control ([4]; 2 h incubation, 10 µM): 101.49 ± 4.25% | viability of PBM cells relative to control ([4]; 2 h incubation, 25 µM): 99.86 ± 1.87% | viability of PBM cells relative to control ([4]; 2 h incubation, 50 µM): 100.66 ± 0.97% | viability of PBM cells relative to control ([4]; 2 h incubation, 100 µM): 100.59 ± 1.01% | viability of PBM cells relative to control ([4]; 2 h incubation, 250 µM): 93.17 ± 2.92% | IC50 ([4]; 24 h incubation): 106 µM | viability of PBM cells relative to control ([4]; 24 h incubation, 0.5 µM): 106.05 ± 1.67% | viability of PBM cells relative to control ([4]; 24 h incubation, 1 µM): 103.84 ± 0.59% | viability of PBM cells relative to control ([4]; 24 h incubation, 2.5 µM): 99.3 ± 1.2% | viability of PBM cells relative to control ([4]; 24 h incubation, 5 µM): 91.84 ± 1.72% | viability of PBM cells relative to control ([4]; 24 h incubation, 10 µM): 85.39 ± 1.19% | viability of PBM cells relative to control ([4]; 24 h incubation, 25 µM): 89.23 ± 0.44% | viability of PBM cells relative to control ([4]; 24 h incubation, 50 µM): 78.87 ± 1.76% | viability of PBM cells relative to control ([4]; 24 h incubation, 100 µM): 50.82 ± 1.08% | viability of PBM cells relative to control ([4]; 24 h incubation, 250 µM): 21.96 ± 0.71%
